pIC50: −log10 of the molar value. Activity calls are given as the source filed them. The rule behind the calls is not given here.
Columns and labels:
[1] = target: T1, Tyrosine-protein phosphatase non-receptor type 1 (Homo sapiens) (UniProt P18031); assay: Non competitive inhibition of PTP1B assessed as inhibition of substrate catalysis by Lineweaver-Burke plot
T1 sequence (whole entry): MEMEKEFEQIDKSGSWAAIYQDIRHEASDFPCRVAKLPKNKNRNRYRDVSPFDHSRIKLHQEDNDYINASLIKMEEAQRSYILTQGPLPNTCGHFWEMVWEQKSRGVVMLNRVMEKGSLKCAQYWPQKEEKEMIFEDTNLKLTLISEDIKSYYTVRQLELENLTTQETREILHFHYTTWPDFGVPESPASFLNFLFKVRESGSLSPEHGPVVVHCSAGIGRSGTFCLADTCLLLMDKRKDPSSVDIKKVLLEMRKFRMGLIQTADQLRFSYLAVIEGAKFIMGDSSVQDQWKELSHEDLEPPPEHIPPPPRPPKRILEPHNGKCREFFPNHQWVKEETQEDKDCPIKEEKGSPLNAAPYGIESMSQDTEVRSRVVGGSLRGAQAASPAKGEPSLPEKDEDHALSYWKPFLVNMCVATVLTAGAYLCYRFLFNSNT

[2] = target: T1, Tyrosine-protein phosphatase non-receptor type 1 (Homo sapiens); assay: (§1) Inhibition of PTP1B
[3] = target: T2, Tyrosine-protein phosphatase non-receptor type 1 (Homo sapiens, UniProt P18031); assay: as §1
T2 sequence (P18031 whole entry): T1 sequence (whole entry)

**Q.** `CCCCCc1cc(O)cc(O)c1Oc1cc(OC)cc2c1C(=O)OC2(CCCC)OC` (stereo not drawn) was tested. Which Activity [1] did it give?
**A.** Its Activity is “Active”.

**Q.** And the Activity [2]?
**A.** Its Activity is “Dose-dependent effect”.

**Q.** And the pIC50 [3]?
**A.** Its pIC50 is 5.16.

**Q.** `CCCCCc1c(Oc2cc(OC)cc3c2C(=O)OC3(CCCC)OC)c(O)cc(O)c1C(=O)O` (stereo not drawn) was tested. Which Activity [2] did it give?
**A.** Its Activity is “Dose-dependent effect”.

**Q.** And the pIC50 [3]?
**A.** Its pIC50 is 5.61.

**Q.** `COC(=O)c1c(C)cc(O)c(C=O)c1O` [METHYL HAEMATOMMATE] was tested. Which pIC50 [3] did it give?
**A.** Its pIC50 is less than 3.70.

**Q.** How did the pIC50 [3] turn out when `COC(=O)c1c(C)cc(OC(=O)c2c(C)cc(O)c(C=O)c2O)c(C)c1O` [ATRANORIN] was run?
**A.** The pIC50 was 4.20.

**Q.** With `COC(=O)c1c(C)cc(O)cc1O` [METHYL ORSELLINATE] as the compound, how does the pIC50 [3] read?
**A.** Its pIC50 is less than 3.70.

**Q.** `CCCCCc1c2c(cc(OC)c1C(=O)OC)OC(=O)c1c(cc(OC)cc1C(=O)CCCC)O2` was tested. Which pIC50 [3] did it give?
**A.** Its pIC50 is 5.13.

**Q.** How did the pIC50 [3] turn out when `CCCCCc1c2c(cc(O)c1C(=O)OC)OC(=O)c1c(cc(OC)cc1C(=O)CCCC)O2` was run?
**A.** The pIC50 was 5.52.

**Q.** With `CCCCCc1c2c(cc(O)c1C(=O)O)OC(=O)c1c(cc(OC)cc1C(=O)CCCC)O2` as the compound, how does the Activity [1] read?
**A.** Its Activity is “Active”.

**Q.** And the Activity [2]?
**A.** Its Activity is “Dose-dependent effect”.

**Q.** `COc1cc(O)c(C(C)=O)c(O)c1C` was tested. Which pIC50 [3] did it give?
**A.** Its pIC50 is less than 3.70.

— ChEMBL document CHEMBL1151873, “Protein tyrosine phosphatase 1B inhibitory effects of depsidone and pseudodepsidone metabolites from the Antarctic lichen Stereocaulon alpinum” (Bioorg Med Chem Lett, 2009)
